Reference: the supplement of paper PMC7108870

Columns and labels:
HEK293sieSTAT3(wt) [1] = experiment: drug sensitivity score (DSS), cytotoxicity CellTox Green (DSS (dimensionless)); higher = more cytotoxic; extreme values may be limits of the assay; conditions: 72 h; STAT3 variant: wild type
In short: (§1)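 For 72 hours at 37°C and 5% CO2, HEK293 cells overexpressing wild-type or mutant STAT3 and carrying a STAT3-dependent luciferase reporter were cultured on compounds at 5 concentrations in 10-fold dilutions. CellTox Green and then CellTiter-Glo signals were read, normalised to negative and positive control wells, and converted in Breeze into a drug sensitivity score based on dose-response curve area. Values are from one representative of two experiments.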

HEK293sieSTAT3(Y640F) [2] = experiment: as above; conditions: 72 h; STAT3 variant: Y640F (constitutively active)
In short: as §1

HEK293sieSTAT3(wt) [3] = experiment: drug sensitivity score (DSS), viability CellTiter-Glo (DSS (dimensionless)); higher = more growth inhibition; extreme values may be limits of the assay; conditions: 72 h; STAT3 variant: wild type
In short: as §1

HEK293sieSTAT3(Y640F) [4] = experiment: as above; conditions: 72 h; STAT3 variant: Y640F (constitutively active)
In short: as §1

| SMILES | drug sensitivity score (HEK293sieSTAT3(wt) [1]) | drug sensitivity score (HEK293sieSTAT3(Y640F) [2]) | drug sensitivity score (HEK293sieSTAT3(wt) [3]) | drug sensitivity score (HEK293sieSTAT3(Y640F) [4]) |
| --- | --- | --- | --- | --- |
| CO[C@H]1C[C@@H]2CC[C@@H](C)[C@@](O)(O2)C(=O)C(=O)N2CCCC[C@H]2C(=O)O[C@H]([C@H](C)C[C@@H]2CC[C@@H](OC(=O)C(C)(CO)CO)[C@H](OC)C2)CC(=O)[C@H](C)/C=C(\C)[C@@H](O)[C@@H](OC)C(=O)[C@H](C)C[C@H](C)/C=C/C=C/C=C/1C [Temsirolimus] (top concentration tested 100 nM) | 0 | 0 | 17.6 | 11.2 |
| COc1cccc2c1C(=O)c1c(O)c3c(c(O)c1C2=O)C[C@@](O)(/C(CO)=N/NC(=O)CCCCCN1C(=O)C=CC1=O)C[C@@H]3O[C@H]1C[C@H](N)[C@H](O)[C@H](C)O1 [Aldoxorubicin] (top concentration tested 1000 nM) | 0 | 0 | 21.1 | 19.7 |
| Cn1ncc(Cl)c1-c1cc(C(=O)N[C@H](CN)Cc2ccc(F)c(F)c2)oc1Cl [Uprosertib] (top concentration tested 10000 nM) | 0 | 0 | 15.3 | 12.7 |
| CCc1cc(Nc2nccc(-c3c(-c4ccc(OC)c(C(=O)Nc5c(F)cccc5F)c4)nc4ccccn34)n2)c(OC)cc1N1CCC(N2CCN(S(C)(=O)=O)CC2)CC1 (top concentration tested 10000 nM) | 0 | 0 | 9.73 | 10.9 |
| Cc1cc(Nc2cc(N3CCN(C)CC3)nc(Sc3ccc(NC(=O)C4CC4)cc3)n2)n[nH]1 [Tozasertib] (top concentration tested 10000 nM) | 0.22 | 0 | 12.1 | 10.3 |
| C[C@@H]1COC(Nc2ccc3ncnc(Nc4ccc(OCc5nccs5)c(Cl)c4)c3c2)=N1 [Varlitinib] (top concentration tested 10000 nM) | 0 | 0 | 0 | 0.4 |
| O=C(Nc1c[nH]nc1-c1nc2ccc(CN3CCOCC3)cc2[nH]1)NC1CC1 [AT9283] (top concentration tested 1000 nM) | 0.75 | 0 | 1.49 | 0.91 |
| FC(F)(F)c1ccc(/C=C/c2nc(COc3ccc(CCCCn4ccnn4)cc3)co2)cc1 [Mubritinib] (top concentration tested 1000 nM) | 0.57 | 0 | 5.94 | 8.41 |
| Cn1cncc1[C@@](N)(c1ccc(Cl)cc1)c1ccc2c(c1)c(-c1cccc(Cl)c1)cc(=O)n2C [Tipifarnib] (top concentration tested 10000 nM) | 6.86 | 1.51 | 14.8 | 12.3 |
| COc1cc([C@@H]2c3cc4c(cc3[C@@H](O[C@@H]3O[C@@H]5CO[C@@H](c6cccs6)O[C@H]5[C@H](O)[C@H]3O)[C@H]3COC(=O)[C@H]23)OCO4)cc(OC)c1O [Teniposide] (top concentration tested 10000 nM) | 8.89 | 2.03 | 29.6 | 29 |
| Cc1cc(Nc2nc(N[C@@H](C)c3ncc(F)cn3)ncc2Cl)[nH]n1 [AZD1480] (top concentration tested 1000 nM) | 0.43 | 0.04 | 0.06 | 0 |
| S=c1[nH]cnc2nc[nH]c12 [Mercaptopurine] (top concentration tested 10000 nM) | 0 | 0 | 7.64 | 7.54 |
| CC(=O)O[C@H]1C(=O)[C@@]2(C)[C@H]([C@H](OC(=O)c3ccccc3)[C@]3(O)C[C@H](OC(=O)[C@H](O)[C@@H](NC(=O)c4ccccc4)c4ccccc4)C(C)=C1C3(C)C)[C@]1(OC(C)=O)CO[C@@H]1C[C@@H]2O [Paclitaxel] (top concentration tested 1000 nM) | 16.8 | 0.91 | 23.2 | 16.4 |
| N#CC[C@H](C1CCCC1)n1cc(-c2ncnc3[nH]ccc23)cn1 [Ruxolitinib] (top concentration tested 10000 nM) | 0.1 | 0.39 | 3.2 | 2.89 |
| COc1cc2c(cc1O)CC[C@@H]1[C@@H]2CC[C@]2(C)[C@@H](O)CC[C@@H]12 [2-methoxyestradiol] (top concentration tested 10000 nM) | 5.9 | 0 | 10.6 | 6.57 |
| CC(C)[C@H]1C(=O)N[C@@H](CCCNC(=N)N)C(=O)NCC(=O)N[C@@H](CC(=O)O)C(=O)N[C@H](Cc2ccccc2)C(=O)N1C [Cilengitide] (top concentration tested 10000 nM) | 0 | 0 | 0 | 0 |
| COc1cc2c(cc1-c1c(C)noc1C)ncc1[nH]c(=O)n([C@H](C)c3ccccn3)c12 [I-BET151] (top concentration tested 10000 nM) | 6.67 | 2.48 | 5.57 | 8.85 |
| CCN(CC)CCNC(=O)c1c(C)[nH]c(/C=C2\C(=O)Nc3ccc(F)cc32)c1C [Sunitinib] (top concentration tested 1000 nM) | 0 | 0 | 0 | 0.02 |
| Cc1ccc(-n2nc(C(C)(C)C)cc2NC(=O)Nc2ccc(OCCN3CCOCC3)c3ccccc23)cc1 [Doramapimod] (top concentration tested 10000 nM) | 0 | 0.14 | 3.87 | 5.05 |
| Cc1nc(Nc2ncc(C(=O)Nc3c(C)cccc3Cl)s2)cc(N2CCN(CCO)CC2)n1 [Dasatinib] (top concentration tested 1000 nM) | 1.81 | 0 | 2.74 | 6.45 |
| CNC(=O)c1cc(Oc2ccc(NC(=O)Nc3ccc(Cl)c(C(F)(F)F)c3)c(F)c2)ccn1 [Regorafenib] (top concentration tested 10000 nM) | 0 | 0 | 6.43 | 6.11 |

| SMILES | drug sensitivity score (HEK293sieSTAT3(wt) [1]) | drug sensitivity score (HEK293sieSTAT3(Y640F) [2]) | drug sensitivity score (HEK293sieSTAT3(wt) [3]) | drug sensitivity score (HEK293sieSTAT3(Y640F) [4]) |
| --- | --- | --- | --- | --- |
| CCS(=O)(=O)N1CC(CC#N)(n2cc(-c3ncnc4[nH]ccc34)cn2)C1 [Baricitinib] (top concentration tested 2500 nM) | 0.42 | 0 | 1.02 | 2.8 |
| C#Cc1cccc(Nc2ncnc3cc4c(cc23)OCCOCCOCCO4)c1 [Icotinib] (top concentration tested 10000 nM) | 0.13 | 0 | 1.11 | 0.77 |
| Cc1ccc(F)c(NC(=O)Nc2ccc(-c3cccc4[nH]nc(N)c34)cc2)c1 [Linifanib] (top concentration tested 1000 nM) | 0 | 0 | 0 | 0 |
| C/C=C1\NC(=O)[C@H]2CSSCC/C=C/[C@H](CC(=O)N[C@H](C(C)C)C(=O)N2)OC(=O)[C@H](C(C)C)NC1=O [Romidepsin] (top concentration tested 1000 nM) | 29.9 | 23.6 | 29.5 | 32.4 |
| CNCc1ccc(-c2[nH]c3cc(F)cc4c3c2CCNC4=O)cc1 [Rucaparib] (top concentration tested 10000 nM) | 0.89 | 0 | 4.23 | 4.37 |
| CC(C)NC[C@@H](C(=O)N1CCN(c2ncnc3c2[C@H](C)C[C@H]3O)CC1)c1ccc(Cl)cc1 [Ipatasertib] (top concentration tested 10000 nM) | 0.07 | 0 | 16.7 | 14.6 |
| CN(C)C[C@@H]1CCn2cc(c3ccccc32)C2=C(C(=O)NC2=O)c2cn(c3ccccc23)CCO1 [Ruboxistaurin] (top concentration tested 10000 nM) | 6.85 | 6.6 | 8.97 | 9 |
| COc1cc(Br)c(Nc2nc(-c3c(C)nc4ncccn34)cs2)c(Br)c1 [PTC-209] (top concentration tested 10000 nM) | 2.2 | 0.1 | 15.7 | 16 |
| CNC(=O)[C@@H](NC(=O)[C@H](CC(C)C)[C@H](O)C(=O)NO)C(C)(C)C [Marimastat] (top concentration tested 10000 nM) | 0 | 0 | 1.16 | 1.16 |
| O=C1NC(=O)/C(=C/c2ccc3nccc(-c4ccncc4)c3c2)S1 (top concentration tested 10000 nM) | 3.49 | 0 | 11.3 | 15.4 |
| CC(C)n1cnc2c(NCCc3ccc(O)cc3)nc(-c3csc4ccccc34)nc21 [StemRegenin 1] (top concentration tested 10000 nM) | 5.48 | 0.52 | 5.04 | 3.04 |
| C[C@]12C=CC(=O)C=C1CC[C@@H]1[C@@H]2C(=O)C[C@@]2(C)[C@H]1CC[C@]2(O)C(=O)CO [Prednisone] (top concentration tested 10000 nM) | 0 | 0.59 | 3.96 | 0.65 |
| COc1cc2/c(=N/c3ccc(Br)cc3F)nc[nH]c2cc1OCC1CCN(C)CC1 [Vandetanib] (top concentration tested 1000 nM) | 0 | 0 | 4.73 | 2.31 |
| CNNCc1ccc(C(=O)NC(C)C)cc1 [Procarbazine] (top concentration tested 10000 nM) | 0 | 0 | 0 | 0 |
| Cc1cnc(Nc2ccc(OCCN3CCCC3)cc2)nc1Nc1cccc(S(=O)(=O)NC(C)(C)C)c1 [Fedratinib] (top concentration tested 10000 nM) | 9.22 | 5.36 | 8.5 | 7.35 |
| NC(=O)Nc1cc(-c2cccc(F)c2)sc1C(=O)N[C@H]1CCCNC1 [AZD7762] (top concentration tested 1000 nM) | 7.16 | 4.24 | 16.8 | 14.9 |
| CC(C)(O)CC(=O)NCCn1ccc2ncnc(Nc3ccc(Oc4cccc(C(F)(F)F)c4)c(Cl)c3)c21 [TAK-285] (top concentration tested 2500 nM) | 0 | 0 | 0 | 0 |
| COc1cc([C@@H]2c3cc4c(cc3[C@@H](O[C@@H]3O[C@@H]5CO[C@@H](C)O[C@H]5[C@H](O)[C@H]3O)[C@H]3COC(=O)[C@H]23)OCO4)cc(OC)c1O [Etoposide] (top concentration tested 10000 nM) | 7.94 | 3.46 | 20 | 17.6 |
| Cc1nn(C)c(COc2ccc(N3CCN(S(=O)(=O)N(C)C)CC3)cc2)c1-c1cccc2c(CCCOc3cccc4ccccc34)c(C(=O)O)n(CCN3CCOCC3)c12 (top concentration tested 50000 nM) | 7.01 | 7.51 | 5.26 | 9.56 |
| CC(C)(C)Cn1c(N)nc2ccc(-c3[nH]c(C(C)(C)C)nc3-c3ccc(F)cc3)nc21 [Ralimetinib] (top concentration tested 10000 nM) | 0 | 0.02 | 0 | 0.9 |
